Test [1] deals with NCI-H358 (ATCC-CRL5807) cells. In words: Cell viability assay, G12C (NCI-H358). The class given is cell-based, human. Conditions: Homo sapiens; KRAS cell viability, NCI-H358, 72 hrs, Cell Counting Kit-8. In outline:
(§1)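 IC50 derived by 4-parameter sigmoidal fit of CCK-8 signal (OD450−OD650, 2 h development) after 72 h compound exposure in 0.5% DMSO. Seeding density was 5,000 cells/well for NCI-H358 and 2,000 cells/well for AGS and SW620, plated overnight before dosing.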

For test [2], the target named is KRAS G12C-BRAF complex (Homo sapiens (Human), UniProt P01116+P62937, G12C). Description: KRAS-BRAF with CYPA (500 nM) interaction assay (TR-FRET), G12C. The test is classed as biochemical.
The test system of test [3] is AGS (ATCC-CRL-1739) cells. In words: Cell viability assay, G12D (AGS). The class given is cell-based, human. Conditions: Homo sapiens, KRAS cell viability, 72 hrs, Cell Counting Kit-8. In outline: as §1
Test [4] concerns SW620 (ATCC-CCL-227). Description: Cell viability assay, G12V (SW620). The class given is cell-based, human. Conditions: Homo sapiens, SW-620; KRAS cell viability, SW620, 72 hrs, Cell Counting Kit-8. In outline:
as §1

The target of test [5] is KRAS G12V binding to BRAF (Homo sapiens (Human), UniProt P01116+P62937, G12V). In words: KRAS-BRAF with CYPA (500 nM) interaction assay (TR-FRET), G12V. The class given is biochemical. A digest of the protocol:
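A TR-FRET assay measured how compound, in the presence of CYPA, disrupts binding of GMPPNP-loaded 6His-KRAS G12V to BRAF. The buffer contained 25 mM HEPES PH=7.4, 0.002% Tween20, 0.1% BSA, 100 mM NaCl, 5 mM MgCl2 and 10 μM GMPPNP. Compounds ran as a 16-point 3-fold dilution series from 10 μM for 3 hours.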

For test [6], the system named is phosphorylation of ERK, KRAS G12D in AGS cells. Description: pERK inhibition assay, KRAS G12D. The settings on record: Homo sapiens, 4 hours. The test is classed as cell-based, human. The procedure:
This assay is to measure the ability of test compounds in inhibiting the phosphorylation of ERK, the downstream signaling of KRAS G12C in NCJ-H358 cells, KRAS G12D in AGS cells, and KRAS G12V in SW620. NCJ-H358 (ATCC-CRL5807) cells, AGS (ATCC-CRL-1739) cells, SW620 (ATCC-CCL-227) cells were all grown and maintained using RPMI-1640 medium (Thermo Fisher Scientific) with 10% fetal bovine serum and 1% penicillin/streptomycin. On the day prior to compound addition, cells were plated in tissue culture-treated 96 well plates (Corning-3699) at a density of 30,000 cell/well, 20,000 cell/well, 30,000 cell/well for NCJ-H358, AGS and SW620 respectively, and allowed for attachment overnight. Diluted compounds were then added in a final concentration of 0.5% DMSO. After 4 hours of incubation, the medium was removed, 100 μL of 4% formaldehyde was added, and the assay plates were incubated at room temperature for 20 minutes. The plates were then washed once with phosphate buffered saline (PBS), and permeabilized with 100 μL of chilled methanol for 10 minutes. Non-specific antibody binding to the plates was blocked using 50 μL 1×BSA blocking buffer (Thermo-37520, 10-fold dilution by Phosphate-Buffered Saline Tween (PBST) for at least 1 hour at room temperature.
The amount of phosphor-ERK was determined using an antibody specific for phosphorylated form of ERK. Primary antibody (pERK, CST-4370, Cell Signaling Technology) was diluted 1:300 in blocking buffer, with 50 μL aliquoted to each well, and incubated overnight at 4′° C. Cells was washed five times for 5 minutes with PBST. Secondary antibody ([…] anti-rabbit IgG, CST-7074, Cell Signaling Technology) was diluted 1:1000 in blocking buffer, and 50 μL was added to each well and incubated 1-2 hrs at room temperature. Cells was washed 5 times for 5 minutes with PBST, 100 μL TMB ELISA substrate (abcam-ab171523) were added and gently shake for 20 minutes. 50 μL stop solution (abcam-ab171529) were added, and then read the signal (OD450) by EnVision.
IC50 was determined by fitting a 4-parameter sigmoidal concentration response model.

In test [7] the target is KRAS G12D binding to BRAF (Homo sapiens (Human), UniProt P01116+P62937, G12D). In words: KRAS-BRAF with CYPA (500 nM) interaction assay (TR-FRET), G12D. The test is classed as biochemical.
Test [8] has as its system phosphorylation of ERK, KRAS G12V in SW620. In words: pERK inhibition assay, KRAS G12V. The class given is cell-based, human. The settings on record: Homo sapiens, SW-620, SW620, 4 hours. In outline:
(§2)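 Cells in RPMI-1640 with 10% FBS were plated overnight (NCJ-H358 30,000, AGS 20,000, SW620 30,000 cells/well), then exposed to compounds in 0.5% DMSO for 4 h. Fixed, methanol-permeabilized cells were probed for pERK by HRP-based in-cell ELISA with TMB, OD450; IC50 from 4-parameter sigmoidal fit.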

The subject of test [9] is phosphorylation of ERK, KRAS G12C in NCJ-H358 cells. In words: pERK inhibition assay, KRAS G12C. The class given is cell-based, human. The settings on record: Homo sapiens, 4 hours. A digest of the protocol: as §2

The text below walks through data of patent US20250206761A1, “HALOINDOLE MACROCYCLIC COMPOUNDS FOR THE TREATMENT OF CANCER” (Hoffmann-La Roche Inc., priority 2022, published 2025).

Chain of KRAS G12D binding to BRAF (P01116-2 other isoform, or with tags, fused parts or gaps G12D): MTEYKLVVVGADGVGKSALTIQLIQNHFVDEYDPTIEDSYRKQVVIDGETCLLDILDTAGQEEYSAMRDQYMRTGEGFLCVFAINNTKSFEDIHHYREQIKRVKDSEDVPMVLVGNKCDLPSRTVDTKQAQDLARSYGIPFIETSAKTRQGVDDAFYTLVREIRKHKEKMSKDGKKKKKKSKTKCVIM
Chain of KRAS G12D binding to BRAF (P62937 whole entry): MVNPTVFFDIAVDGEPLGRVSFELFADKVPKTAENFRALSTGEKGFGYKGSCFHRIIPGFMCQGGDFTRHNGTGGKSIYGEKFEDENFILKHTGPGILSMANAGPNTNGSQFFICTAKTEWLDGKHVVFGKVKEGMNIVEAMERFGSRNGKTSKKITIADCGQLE
Chain of KRAS G12C-BRAF complex (P01116-2 other isoform, or with tags, fused parts or gaps G12C): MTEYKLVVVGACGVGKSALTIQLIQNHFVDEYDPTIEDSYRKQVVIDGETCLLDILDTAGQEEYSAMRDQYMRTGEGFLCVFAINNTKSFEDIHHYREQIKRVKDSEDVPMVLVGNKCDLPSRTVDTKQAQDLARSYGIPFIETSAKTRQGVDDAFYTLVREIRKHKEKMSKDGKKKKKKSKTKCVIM
Chain of KRAS G12C-BRAF complex (P62937 whole entry): as the sequence (P62937 whole entry) above
Chain of KRAS G12V binding to BRAF (P01116-2 other isoform, or with tags, fused parts or gaps G12V): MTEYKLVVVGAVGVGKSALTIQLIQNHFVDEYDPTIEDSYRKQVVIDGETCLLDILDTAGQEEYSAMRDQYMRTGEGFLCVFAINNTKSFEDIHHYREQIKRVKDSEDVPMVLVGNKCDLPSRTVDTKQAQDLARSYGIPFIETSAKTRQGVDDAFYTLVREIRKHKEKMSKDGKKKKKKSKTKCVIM
Chain of KRAS G12V binding to BRAF (P62937 whole entry): as the sequence (P62937 whole entry) above

With `CO[C@@H](C)c1ncc(N2CCN(CC(F)(F)F)CC2)cc1-c1c2c3cc(c(F)cc3n1CC(F)(F)F)-c1csc(n1)C[C@H](NC(=O)[C@H](C(C)C)N(C)C(=O)[C@H]1CCN(C(=O)[C@H](F)Cl)C1)C(=O)N1CCC[C@H](N1)C(=O)OCC(C)(C)C2` (atropisomer, axis not shown; (M)) [Example 26, (3S)-1-[(2R)-2-chloro-2-fluoro-acetyl]-N-[(1S)-1-[[(7S,13S)-24-fluoro-(20M)-20-[2-[(1S)-1-methoxyethyl]-5-[4-(2,2,2-trifluoroethyl)piperazin-1-yl]-3-pyridyl]-17,17-dimethyl-8,14-dioxo-21-(2,2,2-trifluoroethyl)-15-oxa-4-thia-9,21,27,28-tetrazapentacyclo[17.5.2.1^2,5.1^9,13.0^22,26]octacosa-1(25),2,5(28),19,22(26),23-hexaen-7-yl]carbamoyl]-2-methyl-propyl]-N-methyl-pyrrolidine-3-carboxamide], the IC50 worked out at 1 nM in [1]; 46 nM in test [2]; 260 nM in [3]; 34 nM in [4]; 954 nM in test [5]; 15 nM in [6]. Moreover, the results for the IC50 in test [7], in test [8] and in test [9] were above 10000 nM, 14 nM and 7 nM, respectively.
Turning to `CCn1c(-c2cc(N3CCN(C)CC3)cnc2[C@H](C)OC)c2c3cc(c(F)cc31)-c1csc(n1)C[C@H](NC(=O)[C@H](C(C)C)N1CC[C@@]3(CCN(C(=O)[C@H](F)Cl)C3)C1=O)C(=O)N1CCC[C@H](N1)C(=O)OCC(C)(C)C2` (atropisomer, axis not shown; (M)) [Example 30, (2S)-2-[(5R)-7-[(2R)-2-chloro-2-fluoro-acetyl]-1-oxo-2,7-diazaspiro[4.4]nonan-2-yl]-N-[(7S,13S)-21-ethyl-24-fluoro-(20M)-20-[2-[(1S)-1-methoxyethyl]-5-(4-methylpiperazin-1-yl)-3-pyridyl]-17,17-dimethyl-8,14-dioxo-15-oxa-4-thia-9,21,27,28-tetrazapentacyclo[17.5.2.1^2,5.1^9,13.0^22,26]octacosa-1(25),2,5(28),19,22(26),23-hexaen-7-yl]-3-methyl-butanamide], the IC50 is below 1 nM in test [1]; 38 nM in test [2]; 435 nM in test [3]; 1050 nM in test [4]; above 10000 nM in test [5]; 21 nM in [6]. Also, the IC50 in [7] was above 10000 nM; in [8] it was 100 nM; in test [9], 2 nM.
With `CCn1c(-c2cc(N3CCN(C)CC3)cnc2[C@H](C)OC)c2c3cc(c(F)cc31)-c1csc(n1)C[C@H](NC(=O)[C@H](C(C)C)N1CC[C@]3(CCN(C(=O)[C@H](F)Cl)C3)C1=O)C(=O)N1CCC[C@H](N1)C(=O)OCC(C)(C)C2` (atropisomer, axis not shown; (M)) [Example 31, (2S)-2-[(5S)-7-[(2R)-2-chloro-2-fluoro-acetyl]-1-oxo-2,7-diazaspiro[4.4]nonan-2-yl]-N-[(7S,13S)-21-ethyl-24-fluoro-(20M)-20-[2-[(1S)-1-methoxyethyl]-5-(4-methylpiperazin-1-yl)-3-pyridyl]-17,17-dimethyl-8,14-dioxo-15-oxa-4-thia-9,21,27,28-tetrazapentacyclo[17.5.2.1^2,5.1^9,13.0^22,26]octacosa-1(25),2,5(28),19,22(26),23-hexaen-7-yl]-3-methyl-butanamide], the half-inhibitory concentration (IC50) was below 1 nM in test [1]; 44 nM in test [2]; 237 nM in test [3]; 44 nM in test [4]; 1980 nM in test [5]; 24 nM in test [6]. The values for the IC50 in [7], in test [8] and in [9] were above 10000 nM, 12 nM and 5 nM, respectively.
Consider `CCn1c(-c2cc(N3CCN(C)CC3)cnc2[C@H](C)OC)c2c3cc(c(F)cc31)-c1csc(n1)C[C@H](NC(=O)[C@H](C(C)C)N(C)C(=O)[C@H]1CCN(C(=O)[C@H](F)Cl)C1)C(=O)N1CCC[C@H](N1)C(=O)OCC(C)(C)C2` (atropisomer, axis not shown; (M)) [Example 32, (3S)-1-[(2R)-2-chloro-2-fluoro-acetyl]-N-[(1S)-1-[[(7S,13S)-21-ethyl-24-fluoro-(20M)-20-[2-[(1S)-1-methoxyethyl]-5-(4-methylpiperazin-1-yl)-3-pyridyl]-17,17-dimethyl-8,14-dioxo-15-oxa-4-thia-9,21,27,28-tetrazapentacyclo[17.5.2.1^2,5.1^9,13.0^22,26]octacosa-1(25),2,5(28),19,22(26),23-hexaen-7-yl]carbamoyl]-2-methyl-propyl]-N-methyl-pyrrolidine-3-carboxamide], for which the IC50 was below 1 nM in test [1]; 56 nM in test [2]; 792 nM in test [3]; 430 nM in [4]; above 10000 nM in test [5]; 14 nM in test [6]. The half-maximal inhibitory concentration (IC50) is above 10000 nM in test [7], 21 nM in test [8] and 1 nM in test [9].
Take `CCn1c(-c2cc(N3CCN(CC(F)(F)F)CC3)cnc2[C@H](C)OC)c2c3cc(c(F)cc31)-c1csc(n1)C[C@H](NC(=O)[C@H](C(C)C)N(C)C(=O)[C@H]1CCN(C(=O)[C@H](F)Cl)C1)C(=O)N1CCC[C@H](N1)C(=O)OCC(C)(C)C2` (atropisomer, axis not shown; (M)) [Example 33, (3S)-1-[(2R)-2-chloro-2-fluoro-acetyl]-N-[(1S)-1-[[(7S,13S)-21-ethyl-24-fluoro-(20M)-20-[2-[(1S)-1-methoxyethyl]-5-[4-(2,2,2-trifluoroethyl)piperazin-1-yl]-3-pyridyl]-17,17-dimethyl-8,14-dioxo-15-oxa-4-thia-9,21,27,28-tetrazapentacyclo[17.5.2.1^2,5.1^9,13.0^22,26]octacosa-1(25),2,5(28),19,22(26),23-hexaen-7-yl]carbamoyl]-2-methyl-propyl]-N-methyl-pyrrolidine-3-carboxamide]: the concentration for half-maximal inhibition (IC50) in [1] was below 1 nM; in test [2] it was 18 nM; in test [3], 338 nM; in [4], 39 nM; in test [5] it was above 10000 nM; in test [6], 19 nM. For the same compound, the figures for the concentration for half-maximal inhibition (IC50) in [7], in test [8] and in test [9] were above 10000 nM, 8 nM and 4 nM, respectively.
